Test results as given in patent publication US6998392B2, “Formulation to treat or prevent parasitic infection” (MTI Meta Tech Inc., priority 2003, dated 2006).

System: Giardia lamblia (WB strain) trophozoites
Assay: Growth of Giardia lamblia trophozoites during 24 hr and 48 hr incubation in vitro (live and dead counts)
Assay type: cell-based
Conditions: for Reduction of live trophozoites compared to control cultures: 48 hr incubation, n=3
Experimental: Methods for Evaluating the Effect of Ganglioside Enriched Preparation and Ganglioside Fractions on Growth of Giardia lamblia Trophozoites in vitro. The following method was used for preparation of culture medium containing ganglioside. A preparation containing gangliosides was vortexed and sonicated (Sonic 300 Dismembrator™, Artek System Corp.) in 10 ml of TYI-S-33 culture medium, and further diluted by adding 990 ml of culture medium. This stock culture medium containing a known concentration of gangliosides was filtered in succession through Whatman™ No. 1 filter paper, 0.8 μm, 0.45 μm (Milli-Fil-P.F.™ Millipore Corp.), and 0.22 μm (Sterivex-GS™ filters with filling bell, Millipore Corp) filters connected to a peristaltic pump. This stock solution was kept at −30° C. and was diluted on the day of inoculation.
G. lamblia (WB strain) trophozoites were cultured in Diamond's TYI-S-33 (Diamond et al., 1978.). G. lamblia trophozoites (5×10^5) were inoculated in 12.5 cm^2 tissue culture flasks in the total volume of […]. Nutrient stock solution containing gangliosides was diluted to provide a concentration of ganglioside (as N-Acetyl neuraminic acid amounts, NANA) at 0 (control), 0.001, 0.01, 1, 2, and 4 μg/ml. The cultures were incubated for 24 and 48 hr at 37° C. in 5% CO2, and the number of live and dead (no flagellar movement) trophozoites determined using a hemocytometer.
The following method was used for preparation of culture medium containing ganglioside fraction. Total lipids were extracted from the ganglioside enriched preparation using the Folch method (Folch et al., 1957). The ganglioside containing upper phase was transferred and the lower phase was washed once with Folch upper phase solution (chloroform/methanol/water, 3/48/47 by vol.). The combined ganglioside containing fractions were passed through Sep-Pak™ C18 reverse-phase cartridges (Waters Corporation, Milford, Mass., USA), eluted with methanol and chloroform and methanol 2:1 (v/v), and dried completely under vacuum at 23° C. using a rotary evaporator (Williams et al., 1980). Ganglioside (NANA) content was measured as described by Suzuki (1964). Gangliosides were then diluted using the culture medium and filtered as described above.
G. lamblia trophozoites (5×10^5) were incubated for 24 hr and 48 hr with ganglioside fraction at the concentration of 0 (control), 4, 8, 10, 12, 14, 16 and 20 μg/ml in 12.5 cm^2 tissue culture flasks as described above.
In vitro. This study was performed to determine if Fraction A is directly toxic to the parasite. Several dilutions of Fraction A was added to the media at the concentration of 0, 0.001, 0.01, 0, 1, 1, 2, and 4 ug/ml and incubated for 24 hours and 48 hours after inoculation with 500,000 Giardia lamblia trophozoites. […]

Substance: II^(NeuAc)2-LacCer [GD3]
- Reduction of live trophozoites compared to control cultures (10 μg/ml (NANA)): 25%
- Reduction of live trophozoites compared to control cultures (20 μg/ml (NANA)): 55%
- Live trophozoites as a percent of control versus concentration (48 hour incubation, in words (FIG. 12)): decrease as a percent of control in a dose-dependent manner
- Dead trophozoites as a percentage of live trophozoites versus concentration (48 hour incubation, in words (FIG. 13)): increase as a percentage of live trophozoites
